Source: patent publication EP0082648A2, “Cephalosporin derivatives” (IMPERIAL CHEMICAL INDUSTRIES PLC, priority 1981, dated 1983)
Values after ≈ are worked out from the molar mass of the structure shown.

Assays:
E. coli = assay: In vitro agar dilution MIC test, Jewell and Pearmain agar medium; format: cell-based; settings: Escherichia coli, Code A8, inoculum size ~10^5 CFU
Excerpt: (§1) The results set out in the following Table are illustrative of the biological activity of one of the preferred compounds of the present invention, that of Example 4. The following results are those obtained on a standard in vitro test system using Jewell and Pearmain agar medium. The antibacterial activity is described in terms of the minimum inhibitory concentration (MIC) determined by agar - dilution technique with an inoculum size of ~10^5 CFU.

Ent. cloacae = assay: as above; format: cell-based; settings: Enterobacter cloacae, Code A13, inoculum size ~10^5 CFU
Excerpt: as §1

K. aerogenes = assay: as above; format: cell-based; settings: Klebsiella aerogenes, Code A10, inoculum size ~10^5 CFU
Excerpt: as §1

Proteus mirabilis = assay: as above; format: cell-based; settings: Code A18, inoculum size ~10^5 CFU
Excerpt: as §1

Ps. aeruginosa = assay: as above; format: cell-based; settings: Pseudomonas aeruginosa, Code A21, inoculum size ~10^5 CFU
Excerpt: as §1

Salmonella dublin = assay: as above; format: cell-based; settings: Salmonella enterica, Code A20, inoculum size ~10^5 CFU
Excerpt: as §1

Serratia marescens = assay: as above; format: cell-based; settings: Code A16, inoculum size ~10^5 CFU
Excerpt: as §1

Staph. aureus = assay: as above; format: cell-based; settings: Staphylococcus aureus, Code A6, inoculum size ~10^5 CFU
Excerpt: as §1

Strep. pyogenes = assay: as above; format: cell-based; settings: Streptococcus pyogenes, Code A1, inoculum size ~10^5 CFU
Excerpt: as §1

[1] = Toxicity observation after subcutaneous administration to mice; format: in vivo; settings: dose four times the minimum effective dose which protected 50% of the mice against infection with Salmonella dublin
Method: Thus the compound 7-(4-[3-(3-cyano-2-methylisothioureido)propyl]imidazol-2-yl)amino-3-(1-methyl-lH-tetrazol-5-yl)thiomethylceph-3-em-4-carboxylic acid (Example 4) was administered subcutaneously to mice at a dose four times that of the minimum effective dose which protected 50% of the mice against infection with Salmonella dublin.

With `CSC(=NC#N)NCCCc1c[nH]c(NC2C(=O)N3C(C(=O)O)=C(CSc4nnnn4C)CS[C@H]23)n1` (stereo partly shown) [Example 4, 7-(4-[3-(3-cyano-2-methylisothioureido)propyl]imidazol-2-yl)amino-3-(1-methyl-1H-tetrazol-5-yl)thiomethylceph-3-em-4-carboxylic acid] the MIC (E. coli) was 0.06 µg/mL (≈ 0.109 µM), the MIC (Ent. cloacae) was 32 µg/mL (≈ 58.2 µM) and the MIC (K. aerogenes) was 0.12 µg/mL (≈ 0.218 µM). The MIC (Proteus mirabilis) was 1 µg/mL (≈ 1.82 µM), the MIC (Ps. aeruginosa) was > 128 µg/mL and the MIC (Salmonella dublin) was 0.03 µg/mL (≈ 0.0546 µM). It also gave an MIC (Serratia marescens) of 4 µg/mL (≈ 7.28 µM), an MIC (Staph. aureus) of 16 µg/mL (≈ 29.1 µM) and an MIC (Strep. pyogenes) of 8 µg/mL (≈ 14.6 µM). For the same molecule, the “overt toxic symptoms or side effects” value [1] was “No overt toxic symptoms or side effects attributable to the administered compound were noted”.
